# Source: ChEMBL document CHEMBL2413072, “Synthesis and in vitro anticancer studies of novel C-2 arylidene congeners of lantadenes” (2013)
# Columns and labels:
# Assay type in all cases: functional
# [1] = test system: K562; test: Growth inhibition of human K562 cells assessed as cell growth at 10 uM by sulforhodamine B assay; details: read-out: Activity
# [2] = test system: BT-549; test: Growth inhibition of human BT549 cells assessed as growth inhibition at 10 uM by sulforhodamine B assay; details: read-out: GI
# [3] = test system: MDA-MB-231; test: Growth inhibition of human MDA-MB-231 cells assessed as growth inhibition at 10 uM by sulforhodamine B assay; details: read-out: GI
# [4] = test system: MCF7; test: Growth inhibition of human MCF7 cells assessed as growth inhibition at 10 uM by sulforhodamine B assay; details: read-out: GI
# [5] = test system: CAKI-1; test: Growth inhibition of human CAKI-1 cells assessed as growth inhibition at 10 uM by sulforhodamine B assay; details: read-out: GI
# [6] = test system: ACHN; test: Growth inhibition of human ACHN cells assessed as growth inhibition at 10 uM by sulforhodamine B assay; details: read-out: GI
# [7] = test system: A498; test: Growth inhibition of human A498 cells assessed as growth inhibition at 10 uM by sulforhodamine B assay; details: read-out: GI
# [8] = test system: 786-0; test: Growth inhibition of human 786-0 cells assessed as growth inhibition at 10 uM by sulforhodamine B assay; details: read-out: GI
# [9] = Growth inhibition of human NCI-ADR-RES cells assessed as growth inhibition at 10 uM by sulforhodamine B assay; details: read-out: GI
# [10] = test system: OVCAR-8; test: Growth inhibition of human OVCAR8 cells assessed as growth inhibition at 10 uM by sulforhodamine B assay; details: read-out: GI
# [11] = test system: MOLT-4; test: Growth inhibition of human MOLT4 cells assessed as cell growth at 10 uM by sulforhodamine B assay; details: read-out: Activity
# [12] = test system: OVCAR-5; test: Growth inhibition of human OVCAR5 cells assessed as growth inhibition at 10 uM by sulforhodamine B assay; details: read-out: GI
# [13] = test system: IGROV-1; test: Growth inhibition of human IGROV1 cells assessed as growth inhibition at 10 uM by sulforhodamine B assay; details: read-out: GI
# [14] = test system: M14; test: Growth inhibition of human M14 cells assessed as growth inhibition at 10 uM by sulforhodamine B assay; details: read-out: GI
# [15] = test system: LOX IMVI; test: Growth inhibition of human LOXIMVI cells assessed as growth inhibition at 10 uM by sulforhodamine B assay; details: read-out: GI
# [16] = test system: SF-295; test: Growth inhibition of human SF295 cells assessed as growth inhibition at 10 uM by sulforhodamine B assay; details: read-out: GI
# [17] = test system: HCT-15; test: Growth inhibition of human HCT15 cells assessed as growth inhibition at 10 uM by sulforhodamine B assay; details: read-out: GI
# [18] = test system: COLO 205; test: Growth inhibition of human COLO205 cells assessed as growth inhibition at 10 uM by sulforhodamine B assay; details: read-out: GI
# [19] = test system: NCI-H322M; test: Growth inhibition of human NCI-H322M cells assessed as growth inhibition at 10 uM by sulforhodamine B assay; details: read-out: GI
# [20] = test system: HOP-62; test: Growth inhibition of human HOP62 cells assessed as growth inhibition at 10 uM by sulforhodamine B assay; details: read-out: GI
# [21] = test system: SR; test: Growth inhibition of human SR cells assessed as growth inhibition at 10 uM by sulforhodamine B assay; details: read-out: GI
# [22] = test system: RPMI-8226; test: Growth inhibition of human RPMI8226 cells assessed as growth inhibition at 10 uM by sulforhodamine B assay; details: read-out: GI
# [23] = test system: MOLT-4; test: Growth inhibition of human MOLT4 cells assessed as growth inhibition at 10 uM by sulforhodamine B assay; details: read-out: GI
# [24] = test system: CCRF-CEM; test: Growth inhibition of human CCRF-CEM cells assessed as growth inhibition at 10 uM by sulforhodamine B assay; details: read-out: GI
# [25] = test system: MDA-MB-468; test: Growth inhibition of human MDA-MB-468 cells assessed as cell growth at 10 uM by sulforhodamine B assay; details: read-out: Activity
# [26] = test system: MDA-MB-231; test: Growth inhibition of human MDA-MB-231 cells assessed as cell growth at 10 uM by sulforhodamine B assay; details: read-out: Activity
# [27] = test system: MCF7; test: Growth inhibition of human MCF7 cells assessed as cell growth at 10 uM by sulforhodamine B assay; details: read-out: Activity
# [28] = test system: UO-31; test: Growth inhibition of human UO31 cells assessed as cell growth at 10 uM by sulforhodamine B assay; details: read-out: Activity
# [29] = test system: SN12C; test: Growth inhibition of human SN12C cells assessed as cell growth at 10 uM by sulforhodamine B assay; details: read-out: Activity
# [30] = test system: ACHN; test: Growth inhibition of human ACHN cells assessed as cell growth at 10 uM by sulforhodamine B assay; details: read-out: Activity
# [31] = test system: A498; test: Growth inhibition of human A498 cells assessed as cell growth at 10 uM by sulforhodamine B assay; details: read-out: Activity
# [32] = test system: SK-OV-3; test: Growth inhibition of human SKOV3 cells assessed as cell growth at 10 uM by sulforhodamine B assay; details: read-out: Activity
# [33] = test system: OVCAR-3; test: Growth inhibition of human OVCAR3 cells assessed as cell growth at 10 uM by sulforhodamine B assay; details: read-out: Activity
# [34] = test system: IGROV-1; test: Growth inhibition of human IGROV1 cells assessed as cell growth at 10 uM by sulforhodamine B assay; details: read-out: Activity
# [35] = test system: SK-MEL-5; test: Growth inhibition of human SK-MEL-5 cells assessed as cell growth at 10 uM by sulforhodamine B assay; details: read-out: Activity
# [36] = test system: SK-MEL-28; test: Growth inhibition of human SK-MEL-28 cells assessed as cell growth at 10 uM by sulforhodamine B assay; details: read-out: Activity
# [37] = test system: SK-MEL-2; test: Growth inhibition of human SK-MEL-2 cells assessed as cell growth at 10 uM by sulforhodamine B assay; details: read-out: Activity
# [38] = test system: M14; test: Growth inhibition of human M14 cells assessed as cell growth at 10 uM by sulforhodamine B assay; details: read-out: Activity
# [39] = test system: Malme-3M; test: Growth inhibition of human MALME-3M cells assessed as cell growth at 10 uM by sulforhodamine B assay; details: read-out: Activity
# [40] = test system: U-251; test: Growth inhibition of human U251 cells assessed as cell growth at 10 uM by sulforhodamine B assay; details: read-out: Activity
# [41] = test system: SNB-19; test: Growth inhibition of human SNB19 cells assessed as cell growth at 10 uM by sulforhodamine B assay; details: read-out: Activity
# [42] = test system: HT-29; test: Growth inhibition of human HT-29 cells assessed as cell growth at 10 uM by sulforhodamine B assay; details: read-out: Activity
# [43] = test system: COLO 205; test: Growth inhibition of human COLO205 cells assessed as cell growth at 10 uM by sulforhodamine B assay; details: read-out: Activity
# [44] = test system: NCI-H522; test: Growth inhibition of human NCI-H522 cells assessed as cell growth at 10 uM by sulforhodamine B assay; details: read-out: Activity
# [45] = test system: NCI-H460; test: Growth inhibition of human NCI-H460 cells assessed as cell growth at 10 uM by sulforhodamine B assay; details: read-out: Activity
# [46] = test system: NCI-H23; test: Growth inhibition of human NCI-H23 cells assessed as cell growth at 10 uM by sulforhodamine B assay; details: read-out: Activity
# [47] = test system: NCI-H226; test: Growth inhibition of human NCI-H226 cells assessed as cell growth at 10 uM by sulforhodamine B assay; details: read-out: Activity
# [48] = test system: HOP-92; test: Growth inhibition of human HOP92 cells assessed as cell growth at 10 uM by sulforhodamine B assay; details: read-out: Activity
# [49] = test system: HOP-62; test: Growth inhibition of human HOP62 cells assessed as cell growth at 10 uM by sulforhodamine B assay; details: read-out: Activity
smiles,measurement,setting,value
CC1(C)C[C@@H](O)[C@]2(C(=O)O)CC[C@]3(C)C(=CC[C@@H]4[C@@]5(C)C/C(=C\C=C\c6ccccc6)C(=O)C(C)(C)[C@@H]5CC[C@]43C)[C@@H]2C1,growth at 10 µM,[1],32.4%
same,inhibition of growth at 10 µM,[2],30%
same,inhibition of growth at 10 µM,[3],31.1%
same,inhibition of growth at 10 µM,[4],66.2%
same,inhibition of growth at 10 µM,[5],57%
same,inhibition of growth at 10 µM,[6],58.1%
same,inhibition of growth at 10 µM,[7],< 10%
same,inhibition of growth at 10 µM,[8],21.9%
same,inhibition of growth at 10 µM,[9],23.8%
same,inhibition of growth at 10 µM,[10],57%
same,growth at 10 µM,[11],44.4%
same,inhibition of growth at 10 µM,[12],< 10%
same,inhibition of growth at 10 µM,[13],39.2%
same,inhibition of growth at 10 µM,[14],27.1%
same,inhibition of growth at 10 µM,[15],38.6%
same,inhibition of growth at 10 µM,[16],76.5%
same,inhibition of growth at 10 µM,[17],64.8%
same,inhibition of growth at 10 µM,[18],< 10%
same,inhibition of growth at 10 µM,[19],28.1%
same,inhibition of growth at 10 µM,[20],37.2%
same,inhibition of growth at 10 µM,[21],37.4%
same,inhibition of growth at 10 µM,[22],84.4%
same,inhibition of growth at 10 µM,[23],55.6%
same,inhibition of growth at 10 µM,[24],80.1%
same,growth at 10 µM,[25],72.6%
same,growth at 10 µM,[26],68.9%
same,growth at 10 µM,[27],33.8%
same,growth at 10 µM,[28],40.3%
same,growth at 10 µM,[29],45.5%
same,growth at 10 µM,[30],41.9%
same,growth at 10 µM,[31],95.7%
same,growth at 10 µM,[32],85.7%
same,growth at 10 µM,[33],57.3%
same,growth at 10 µM,[34],60.8%
same,growth at 10 µM,[35],73.7%
same,growth at 10 µM,[36],74.2%
same,growth at 10 µM,[37],64.6%
same,growth at 10 µM,[38],72.9%
same,growth at 10 µM,[39],84.5%
same,growth at 10 µM,[40],33.6%
same,growth at 10 µM,[41],73.4%
same,growth at 10 µM,[42],51.7%
same,growth at 10 µM,[43],97.8%
same,growth at 10 µM,[44],47.7%
same,growth at 10 µM,[45],45.8%
same,growth at 10 µM,[46],59.7%
same,growth at 10 µM,[47],72.3%
same,growth at 10 µM,[48],49.2%
same,growth at 10 µM,[49],62.8%
CC(C)=CC(=O)O[C@@H]1CC(C)(C)C[C@H]2C3=CC[C@@H]4[C@@]5(C)CCC(=O)C(C)(C)[C@@H]5CC[C@@]4(C)[C@]3(C)CC[C@@]12C(=O)O,growth at 10 µM,[1],45%
same,inhibition of growth at 10 µM,[2],30.4%
same,inhibition of growth at 10 µM,[3],28.5%
same,inhibition of growth at 10 µM,[4],50.7%
same,inhibition of growth at 10 µM,[5],53.2%
same,inhibition of growth at 10 µM,[6],56.1%
same,inhibition of growth at 10 µM,[7],< 10%
same,inhibition of growth at 10 µM,[8],55.9%
same,inhibition of growth at 10 µM,[9],40%
same,inhibition of growth at 10 µM,[10],44.9%
same,growth at 10 µM,[11],36.5%
same,inhibition of growth at 10 µM,[12],< 10%
same,inhibition of growth at 10 µM,[13],37.7%
same,inhibition of growth at 10 µM,[14],19.7%
same,inhibition of growth at 10 µM,[15],48.8%
same,inhibition of growth at 10 µM,[17],81.4%
same,inhibition of growth at 10 µM,[18],29%
same,inhibition of growth at 10 µM,[19],46%
same,inhibition of growth at 10 µM,[20],39.8%
same,inhibition of growth at 10 µM,[21],47.9%
same,inhibition of growth at 10 µM,[22],80.4%
same,inhibition of growth at 10 µM,[23],63.5%
same,inhibition of growth at 10 µM,[24],74.7%
same,growth at 10 µM,[25],64.2%
same,growth at 10 µM,[26],71.5%
same,growth at 10 µM,[27],49.3%
same,growth at 10 µM,[28],42%
same,growth at 10 µM,[29],42.6%
same,growth at 10 µM,[30],43.9%
same,growth at 10 µM,[31],101%
same,growth at 10 µM,[32],95.4%
same,growth at 10 µM,[33],61.3%
same,growth at 10 µM,[34],62.3%
same,growth at 10 µM,[35],47.9%
same,growth at 10 µM,[36],91.2%
same,growth at 10 µM,[37],78.2%
same,growth at 10 µM,[38],80.3%
same,growth at 10 µM,[39],85.4%
same,growth at 10 µM,[40],38.2%
same,growth at 10 µM,[41],57.3%
same,growth at 10 µM,[42],57.3%
same,growth at 10 µM,[43],71%
same,growth at 10 µM,[44],57.3%
same,growth at 10 µM,[45],47.1%
same,growth at 10 µM,[46],53.4%
same,growth at 10 µM,[47],78.2%
same,growth at 10 µM,[48],28.4%
same,growth at 10 µM,[49],60.2%
